Assay results as given in publication PMC7602804 (Nutrients, 2020).
No end group written: not given here.

Tested on: pepsin, then trypsin, chymotrypsin and elastase
Assay: In vitro simulation of gastrointestinal digestion
Type: in vitro ADME
Conditions: 37 °C
Procedure: The purified milk peptides and the synthesized PIGSENSEKTTMPLW and […] peptides were subjected to digestion, essentially as described in [5, 26] with few modifications. The peptides were dissolved in 0.15 M of NaCl with a pH of 2.5 at a concentration of 1 mg/mL and incubated with pepsin from porcine gastric mucosa in a 1:100 w/w enzyme to substrate ratio for 60 min at 37 °C. Before digestion with pancreatic proteases, the sample was lyophilized and washed twice in deionized water. Trypsin and chymotrypsin from a bovine pancreas (Worthington Biochemical Corporation, NJ, USA) (1:100 w/w) and elastase (Worthington) (1:500 w/w) were added in 50 mM of ammonium bicarbonate buffer (pH = 7.6) and the mixture was incubated for 60 min at 37 °C. In digests of the synthesized peptides, aliquots were sampled and analyzed after 5 min, 30 min, 60 min and 270 min incubation with the intestinal enzymes. Bovine milk osteopontin was purified as previously described and incubated with the digestive proteases to validate their activity. The digested milk peptides were separated by RP-HPLC on an Aeris C4 widepore column (Phenomenex, Værløse, Denmark) connected to a Shimadzu (Kyoto, Japan) HPLC system. The peptides were separated in 0.1% TFA (buffer A) and eluted with a gradient of 60% acetonitrile in 0.1% TFA (buffer B) at 40 °C. The gradient was developed over 59 min (0–5 min: 0% buffer B; 5–49 min: 0–98% buffer B; 49–59 min: 98% buffer B) at a flow rate of 0.85 mL/min. The peptides were detected by measuring the absorbance at 226 nm and analyzed by matrix-assisted laser desorption ionization time-of-flight mass spectrometry (MALDI-MS).
MALDI-MS was performed using a Bruker Autoflex III instrument (Bruker Daltonics, Bremen, Germany). The analysis was performed using a saturated solution of α-cyano-4-hydroxycinnamic acid. The instrument was operated in reflected positive ionization mode and calibrated in the mass range of 1000 to 3200 Da using a peptide calibration standard (Bruker Daltonics, Bremen, Germany). The theoretical peptide masses were calculated using the General Protein/Mass Analysis for Windows software (Lighthouse Data, Odense, Denmark).

Stability of the synthetic peptide / control in simulated gastrointestinal digestion (1 mg/mL, pepsin 1:100 w/w, 0.15 M NaCl pH 2.5, 60 min, chymotrypsin 1:100 and elastase 1:500 w/w, 50 mM ammonium bicarbonate pH 7.6, 37 °C, sampled 5, 30, 60 and 270 min, MALDI-MS (osteopontin: SDS-PAGE)): observed even after 270 min of digestion
Resistance to simulated gastrointestinal digestion within the purified milk peptide mix (purified milk peptides 1 mg/mL, pepsin 1:100, pH 2.5, 60 min, chymotrypsin 1:100, elastase 1:500, pH 7.6, 60 min, RP-HPLC fractions, MALDI-MS, before and after digestion): observed
Sequence: PIGSENSEKTTMPLW [PIGSENSEKTTMPLW]
